In PubChem BioAssay AID2060901 (Molecular Pharmacology Branch, DTP, NCI, 2025):
pIC50: −log10 of the molar value.

System: 422866-222-R5-J1-PDC complex spheroids viability
Assay: Anticancer human tumor 422866-222-R5-J1-PDC patient-derived pancreatic adenocarcinoma cell line growth inhibition [RAS]
Conditions: for pIC50: curve of first compound; for viability, T/C: stronger effect = lower value; active = viability on the fitted dose curve at most 10% of control; inactive = the rest
Method in brief: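 Tumour cells grown as complex spheroids with HUVEC endothelial cells and mesenchymal stem cells, treated with RAS pathway inhibitor combinations. Each agent spans half-log steps from near clinical Cmax, or 10 microM where Cmax is unknown.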
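Also: spheroids exposed to compounds for 7 days.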
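For viability, T/C in this document: 100% = DMSO vehicle control viability.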

CC(Nc1ccc2c(c1)OCCn1cc(N3C(=O)OCC3C(F)F)nc1-2)C(N)=O (configuration not stated) + CCn1c(-c2cc(N3CCN(C)CC3)cnc2C(C)OC)c2c3cc(ccc31)-c1csc(n1)CC(NC(=O)C1CC1C)C(=O)N1CCCC(N1)C(=O)OCC(C)(C)C2
active: viability, T/C (second compound 0.000949 µM, first compound 10 µM) 10.7% | viability, T/C (second compound 0.003 µM, first compound 1 µM) 8.16% | viability, T/C (second compound 0.003 µM, first compound 3.16 µM) 6.87% | viability, T/C (second compound 0.003 µM, first compound 10 µM) 5.82% | viability, T/C (second compound 0.00949 µM, first compound 0.316 µM) 9.35% | viability, T/C (second compound 0.00949 µM, first compound 1 µM) 6.74% | viability, T/C (second compound 0.00949 µM, first compound 3.16 µM) 5.6% | viability, T/C (second compound 0.00949 µM, first compound 10 µM) 4.57% | viability, T/C (second compound 0.03 µM, first compound 0.316 µM) 9.06% | viability, T/C (second compound 0.03 µM, first compound 1 µM) 6.27% | viability, T/C (second compound 0.03 µM, first compound 3.16 µM) 5.7% | viability, T/C (second compound 0.03 µM, first compound 10 µM) 4.35% | viability, T/C (second compound 0.0949 µM, first compound 0.316 µM) 8.62% | viability, T/C (second compound 0.0949 µM, first compound 1 µM) 6.05% | viability, T/C (second compound 0.0949 µM, first compound 3.16 µM) 5.83% | viability, T/C (second compound 0.0949 µM, first compound 10 µM) 4.73% | viability, T/C (second compound 0.3 µM, first compound 0.316 µM) 10.2% | viability, T/C (second compound 0.3 µM, first compound 1 µM) 6.6% | viability, T/C (second compound 0.3 µM, first compound 3.16 µM) 5.26% | viability, T/C (second compound 0.3 µM, first compound 10 µM) 4.96%
inactive: viability, T/C (second compound 0.000949 µM, first compound 0.0316 µM) 24.6% | viability, T/C (second compound 0.000949 µM, first compound 0.1 µM) 19% | viability, T/C (second compound 0.000949 µM, first compound 0.316 µM) 13% | viability, T/C (second compound 0.000949 µM, first compound 1 µM) 11.9% | viability, T/C (second compound 0.000949 µM, first compound 3.16 µM) 9.45% | viability, T/C (second compound 0.003 µM, first compound 0.0316 µM) 16.9% | viability, T/C (second compound 0.003 µM, first compound 0.1 µM) 14.2% | viability, T/C (second compound 0.003 µM, first compound 0.316 µM) 9.14% | viability, T/C (second compound 0.00949 µM, first compound 0.0316 µM) 16.1% | viability, T/C (second compound 0.00949 µM, first compound 0.1 µM) 12.1% | viability, T/C (second compound 0.03 µM, first compound 0.0316 µM) 13.4% | viability, T/C (second compound 0.03 µM, first compound 0.1 µM) 11.8% | viability, T/C (second compound 0.0949 µM, first compound 0.0316 µM) 15.5% | viability, T/C (second compound 0.0949 µM, first compound 0.1 µM) 12.1% | viability, T/C (second compound 0.3 µM, first compound 0.0316 µM) 13.9% | viability, T/C (second compound 0.3 µM, first compound 0.1 µM) 11.8%
> 7.50: pIC50 (second compound 0.000949 µM) | pIC50 (second compound 0.003 µM) | pIC50 (second compound 0.00949 µM) | pIC50 (second compound 0.03 µM) | pIC50 (second compound 0.0949 µM) | pIC50 (second compound 0.3 µM)
